Reference: patent US6432997B1, “Pyrazole pesticides” (Rhone-Poulenc, Inc., priority 1997, dated 2002)

Legend:
[1] = tested on: southern armyworm, cotton aphid, tobacco budworm and greenbug; assay: Systemic tests (soil drench / root uptake, systemic evaluation); assay type: in vivo
Method: For southern root-knot nematode and systemic tests for southern armyworm, cotton aphid, tobacco budworm and greenbug, a stock solution or suspension was prepared by adding 15 mg of the test compound to 250 mg of dimethylformamide, 1250 mg of acetone and 3 mg of the emulsifier blend referenced above. Water was then added to provide a test compound concentration of 150 ppm. When necessary, sonication was provided to insure complete dispersion.
Southern armyworm on tomato—systemic evaluation: This test was conducted in conjunction with the southern root-knot nematode evaluation (discussed below). The tomato plants, grown in the soil (at an initial compound test screening rate of 6.6 ppm soil concentration or about 150 ppm solution concentration) for nematode evaluation, were then utilized for evaluation of a compound's uptake via roots and subsequent systemic transport to the tomato foliage. […]
Cotton aphid and tobacco budworm (on cotton) and greenbug and tobacco budworm (on sorghum)—systemic evaluation: A 7.0 ml aliquot of the 150 ppm nematode test solution was applied to deliver the equivalent of 10.0 ppm soil concentration dose as a drench to 6 cm pots containing cotton and sorghum plants. […] Again at six days, the plants were rated for aphid activity and the cotton aphids and greenbugs were counted and mortality was assessed. […] Mortality was assessed six days after infestation. […]

[2] = tested on: Lucilia sericata; conditions: single species; from WO 92/13451 (Schering Agrochemicals Ltd.); cited from earlier work

5-Amino-1-[2,6-dichloro-4-(trifluoromethyl)phenyl]-4-methylsulfinyl-N-hydroxy-N-methyl-1H-pyrazole carboximidamide [Compound 1]
activity in the systemic tests [1]: particularly good activity

5-Amino-1-[2,6-dichloro-4-(trifluoromethyl)phenyl]-4-trifluoromethylsulfinyl-N-hydroxy-N-methyl-1H-pyrazole carboximidamide [Compound 2]
activity in the systemic tests [1]: particularly good activity

5-chloro-1-[2,6-dichloro-4-(trifluoromethyl)phenyl]-4-(4,5-1H-pyrazole
activity against Lucilia sericata [2]: activity against a single species Lucilia sericata
